Results on 11 compounds are retold here after ChEMBL document CHEMBL1201862, “PubChem BioAssay data set” (2004).

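Values below derive from 48-hour exposures of cells grown in 96-well plates, with endpoints linearly interpolated between the two concentrations bracketing the appropriate inhibition level. GI50 = concentration required for 50% inhibition of growth.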 Calls of active or inactive are those of the source. Rule as the data show it: active = GI50 up to about 1.1 µM and inactive = higher.

Among the test systems are 786-0; CAKI-1; COLO 205; DU-145; HT-29; LOX IMVI; M14; MCF7; MDA-MB-231; Malme-3M; NCI-H23; OVCAR-5; PC-3; SF-295; SK-OV-3; SNB-75; SR; SW-620; T47D.
Holding throughout (assay): growth of human tumour cells (NCI), 48 h

For the compound `N=C(N)N/N=C/c1c(-c2ccc([N+](=O)[O-])cc2)nc2sccn12`, the GI50 in the assay on 786-0 is 1.47 µM (inactive); with CAKI-1 it was 2.43 µM (inactive); in the assay with COLO 205, 0.676 µM (active); in the assay with DU-145, 1.82 µM (inactive); with HT-29 it was 1.53 µM (inactive); with LOX IMVI, 1.86 µM (inactive). For the same compound, the GI50 is 1.91 µM (inactive) in the assay with M14; 1.42 µM (inactive) in the assay with MCF7; 1.68 µM (inactive) in the assay with MDA-MB-231; 1.95 µM (inactive) in the assay on Malme-3M; 1.71 µM (inactive) in the assay with NCI-H23; 1.7 µM (inactive) with OVCAR-5. Also, the GI50 is 1.59 µM (inactive) in the assay with PC-3; 1.39 µM (inactive) in the assay with SF-295; 1.64 µM (inactive) in the assay with SK-OV-3; 1.8 µM (inactive) with SNB-75; 1.73 µM (inactive) in the assay with SR; 0.706 µM (active) in the assay on SW-620. Further, the GI50 with T47D is 1.74 µM (inactive).
`CC1OC(OCC2OC(Oc3ccc(C4CC(=O)c5c(O)cc(O)cc5O4)cc3O)C(O)C(O)C2O)C(O)C(O)C1O` (centres undefined): the GI50 in the assay with 786-0, in the assay on CAKI-1, with COLO 205, in the assay with DU-145, in the assay with HT-29 and in the assay on LOX IMVI was > 100 µM (inactive) each time. Besides, the GI50 in the assay with M14, with MCF7, in the assay on MDA-MB-231, in the assay with Malme-3M, in the assay with NCI-H23 and in the assay on OVCAR-5 was > 100 µM (inactive) throughout. Also, the GI50 in the assay on PC-3, in the assay with SF-295, with SK-OV-3, in the assay with SNB-75, in the assay on SR and with SW-620 was > 100 µM (inactive) throughout. In the assay with T47D, the GI50 was > 100 µM (inactive).
Regarding `COc1cc(C2c3cc4c(cc3OC(O)C2C)OCO4)cc(OC)c1O` (centres undefined), the GI50 was 8.89 µM (inactive) in the assay on 786-0; 8.79 µM (inactive) with CAKI-1; 18.2 µM (inactive) with COLO 205; 23.5 µM (inactive) in the assay on DU-145; 4.7 µM (inactive) in the assay with HT-29; 8.67 µM (inactive) in the assay on LOX IMVI. For the same compound, the GI50 in the assay with M14 is 6.9 µM (inactive); with MCF7, 4.4 µM (inactive); in the assay on MDA-MB-231, 10.1 µM (inactive); in the assay with Malme-3M, 3.86 µM (inactive); in the assay with NCI-H23 it was 28.8 µM (inactive); in the assay on OVCAR-5, 46.8 µM (inactive). The GI50 is 8.49 µM (inactive) in the assay with PC-3; 3.92 µM (inactive) with SF-295; 6.59 µM (inactive) with SK-OV-3; 3.29 µM (inactive) in the assay on SNB-75; 2.9 µM (inactive) in the assay with SR; 4 µM (inactive) in the assay with SW-620. In addition, the GI50 in the assay on T47D was 7.64 µM (inactive).
Turning to `CN(C)c1ccc(C(=NN)c2ccc(N(C)C)cc2)cc1`, the GI50 with 786-0 was 4.8 µM (inactive); in the assay on CAKI-1 it was 0.276 µM (active); in the assay on COLO 205, 0.344 µM (active); in the assay on DU-145, 2.2 µM (inactive); with HT-29, 0.443 µM (active); in the assay on LOX IMVI, 0.966 µM (active). In addition, the GI50 with M14 is 0.504 µM (active); in the assay with MCF7, 0.573 µM (active); in the assay on MDA-MB-231, 0.526 µM (active); with Malme-3M, 53.3 µM (inactive); with NCI-H23, 1.46 µM (inactive); with OVCAR-5, 4.95 µM (inactive). The GI50 is 0.755 µM (active) with PC-3; 0.449 µM (active) in the assay with SF-295; 1.84 µM (inactive) in the assay with SK-OV-3; 0.401 µM (active) with SNB-75; 0.231 µM (active) in the assay with SR; 0.462 µM (active) with SW-620. Further, the GI50 with T47D is 1.66 µM (inactive).
Consider `O=C(O)C(C1NCCS1)N1C(=O)c2ccccc2C1=O` (centres undefined), for which the GI50 in the assay with 786-0, with CAKI-1, in the assay with COLO 205, in the assay on DU-145, in the assay with HT-29 and in the assay on LOX IMVI was > 100 µM (inactive) throughout. The GI50 with M14, in the assay with MCF7, in the assay on MDA-MB-231, with Malme-3M, with NCI-H23 and in the assay on OVCAR-5 was > 100 µM (inactive) in each case. For the same compound, the GI50 with PC-3, with SF-295, with SK-OV-3, in the assay on SNB-75, in the assay on SR and in the assay on SW-620 was > 100 µM (inactive) throughout. Besides, in the assay on T47D, the GI50 was > 100 µM (inactive).
As to `CC(=O)C1=C(C)N(c2ccccc2)C2(O)C3=C(C(=O)c4ccccc4C3=O)C(O)=CC12Cl` (centres undefined), the GI50 in the assay with 786-0 is 4.63 µM (inactive); in the assay on CAKI-1, 4.05 µM (inactive); in the assay with COLO 205 it was 5.21 µM (inactive); in the assay on DU-145, 11.2 µM (inactive); with HT-29, 3.1 µM (inactive); with LOX IMVI it was 3.56 µM (inactive). The GI50 in the assay with M14 is 7.03 µM (inactive); in the assay on MCF7, 3.61 µM (inactive); with MDA-MB-231 it was 10.7 µM (inactive); in the assay with Malme-3M it was 1.88 µM (inactive); in the assay on NCI-H23, 6.55 µM (inactive); in the assay on OVCAR-5, 20 µM (inactive). Besides, the GI50 was 7.28 µM (inactive) in the assay with PC-3; 11.1 µM (inactive) with SF-295; 49.7 µM (inactive) in the assay on SK-OV-3; 4.28 µM (inactive) with SNB-75; 2.42 µM (inactive) in the assay on SR; 3.89 µM (inactive) in the assay on SW-620. The GI50 in the assay with T47D was 35.2 µM (inactive).
Turning to `Cc1ccc2c(c1)C(=O)/C(=C\c1ccccc1)CCS2(=O)=O`, the GI50 is 11.2 µM (inactive) in the assay with 786-0; 17.2 µM (inactive) with CAKI-1; 17.4 µM (inactive) with COLO 205; 3.27 µM (inactive) with DU-145; 9.06 µM (inactive) in the assay with HT-29; 10.7 µM (inactive) in the assay on LOX IMVI. The GI50 was 19.8 µM (inactive) with M14; 6.21 µM (inactive) with MCF7; 12.7 µM (inactive) with MDA-MB-231; 10.7 µM (inactive) with Malme-3M; 12.7 µM (inactive) with NCI-H23; 19 µM (inactive) in the assay on OVCAR-5. The GI50 with PC-3 was 10.4 µM (inactive); in the assay with SF-295, 14.2 µM (inactive); in the assay with SK-OV-3 it was 15.9 µM (inactive); with SNB-75, 20.6 µM (inactive); in the assay on SR, 2.92 µM (inactive); in the assay on SW-620 it was 15.5 µM (inactive). Also, the GI50 with T47D was 11.7 µM (inactive).
On to `CC(C)(C)OC(=O)c1ccc(NCC2=CC(=O)C=CC2=O)cc1`, for which the GI50 in the assay on 786-0 is 9.35 µM (inactive); with CAKI-1, 1.48 µM (inactive); in the assay on COLO 205, 2.83 µM (inactive); with DU-145, 16.1 µM (inactive); with HT-29, 17.3 µM (inactive); in the assay on LOX IMVI, 10.7 µM (inactive). Besides, the GI50 with M14 was 6.38 µM (inactive); in the assay on MCF7, 0.706 µM (active); in the assay with MDA-MB-231, 8.34 µM (inactive); in the assay with Malme-3M, 2.89 µM (inactive); with NCI-H23, 8.61 µM (inactive); in the assay on OVCAR-5, 17.8 µM (inactive). Besides, the GI50 was 12 µM (inactive) in the assay with PC-3; 23 µM (inactive) in the assay on SF-295; 17.1 µM (inactive) in the assay with SK-OV-3; 8.28 µM (inactive) with SNB-75; 2.47 µM (inactive) with SR; 9.91 µM (inactive) in the assay on SW-620. Besides, in the assay with T47D, the GI50 is 1.95 µM (inactive).
`O=C(NN1CCCCC1)c1cc2cc(CCl)ccc2oc1=O`: the GI50 was 16.5 µM (inactive) with 786-0; 18.1 µM (inactive) in the assay with CAKI-1; 17.9 µM (inactive) in the assay with COLO 205; 29.4 µM (inactive) in the assay on DU-145; 14.9 µM (inactive) in the assay on HT-29; 18.5 µM (inactive) with LOX IMVI. Further, the GI50 in the assay with M14 was 18.8 µM (inactive); with MCF7, 38.7 µM (inactive); in the assay with MDA-MB-231, 20.6 µM (inactive); in the assay with Malme-3M, 10.5 µM (inactive); in the assay on NCI-H23, 16.5 µM (inactive); with OVCAR-5 it was 17.2 µM (inactive). In addition, the GI50 is 14.8 µM (inactive) in the assay on PC-3; 20.1 µM (inactive) with SF-295; 21.9 µM (inactive) in the assay on SK-OV-3; 18.6 µM (inactive) with SNB-75; 21.2 µM (inactive) in the assay with SR; 23.1 µM (inactive) in the assay on SW-620. Also, the GI50 with T47D was 20.9 µM (inactive).
On to `CN1CCN(c2ccc3[nH]c(-c4ccc5[nH]c(-c6ccc(N(C)CCCl)cc6)nc5c4)nc3c2)CC1`, for which the GI50 was 0.13 µM (active) in the assay on 786-0; 4.41 µM (inactive) in the assay with CAKI-1; 0.17 µM (active) with COLO 205; 0.183 µM (active) in the assay with DU-145; 0.217 µM (active) in the assay with HT-29; 0.0311 µM (active) in the assay with LOX IMVI. The GI50 is 1.08 µM (active) in the assay with M14; < 0.01 µM (active) in the assay on MCF7; 9.64 µM (inactive) in the assay on MDA-MB-231; 0.208 µM (active) with Malme-3M; 0.25 µM (active) with NCI-H23; 2.45 µM (inactive) with OVCAR-5. Further, the GI50 was 0.136 µM (active) with PC-3; 1.76 µM (inactive) with SF-295; 0.196 µM (active) in the assay on SK-OV-3; 0.152 µM (active) with SNB-75; 0.0301 µM (active) in the assay with SR; 0.14 µM (active) in the assay with SW-620. In addition, the GI50 in the assay with T47D is 0.174 µM (active).
For `O=[N+]([O-])c1cc2oc(COc3ccccc3)nc2cc1Cl`, the GI50 in the assay with 786-0 is 33.1 µM (inactive); with CAKI-1, 22.7 µM (inactive); in the assay with COLO 205 it was 20.6 µM (inactive); in the assay on DU-145 it was 32.3 µM (inactive); in the assay on HT-29, 32.5 µM (inactive); in the assay with LOX IMVI it was 16.7 µM (inactive). In addition, the GI50 was 19.5 µM (inactive) in the assay with M14; 23.8 µM (inactive) in the assay with MCF7; 30.5 µM (inactive) with MDA-MB-231; 33.7 µM (inactive) in the assay on Malme-3M; 17.1 µM (inactive) with NCI-H23; 28.4 µM (inactive) with OVCAR-5. Further, the GI50 was 38.4 µM (inactive) in the assay on PC-3; 17.4 µM (inactive) in the assay on SF-295; 24.9 µM (inactive) in the assay with SK-OV-3; 18.7 µM (inactive) in the assay on SNB-75; 29.4 µM (inactive) in the assay with SR; 43.2 µM (inactive) with SW-620. Also, the GI50 with T47D is 18.4 µM (inactive).
